Assay results reported in article PMC7481357, “N-terminal Myristoylation Enhanced the Antimicrobial Activity of Antimicrobial Peptide PMAP-36PW” (Frontiers in Cellular and Infection Microbiology, 2020).
Entries after “also recorded” stand apart in the source; their conditions may differ. No end group written: not given here.

Legend:
[1] = test system: S. aureus ATCC 25923; type: cell-based, Staphylococcus aureus; conditions: for MICs of different classes of antibiotics: S. aureus ATCC 25923, * indicates resistant (CLSI, 2020); for MICs: ATCC 25923, 18 h
Description: (§1) The MICs of Myr-36PW in vitro were measured through microdilution in accordance with the Clinical and Laboratory Standards Institute (CLSI, [2020]). The bacterial cells were cultured for 12 h at 37°C in the appropriate medium and then diluted to 1 × 10^6 CFU/mL. Equal volumes (100 μL) of bacterial cell suspension and two-fold serially diluted different concentrations peptides (0.0039–256 μg/mL) were added to each well of the sterile 96-well plate. The samples were incubated for 18 h at 37°C. After incubation, the MICs of the peptides were determined by evaluating the growth based on the OD600 of the cultures.

[2] = test system: L. monocytogenes CICC 21634; type: cell-based, Listeria monocytogenes; conditions: for MICs of different classes of antibiotics: L. monocytogenes CICC 21634, * indicates resistant (CLSI, 2020); for MICs: CICC 21634, 18 h
Description: as §1

[3] = test system: S. typhimurium SL 1344; type: cell-based, Salmonella typhimurium; conditions: for MICs of different classes of antibiotics: S. typhimurium SL 1344, * indicates resistant (CLSI, 2020); for MICs: SL 1344, 18 h
Description: as §1

[4] = test system: P. aeruginosa GIM 1.551; type: cell-based, Pseudomonas aeruginosa; conditions: for MICs of different classes of antibiotics: P. aeruginosa GIM 1.551, * indicates resistant (CLSI, 2020); for MICs: GIM 1.551, 18 h
Description: as §1

[5] = test system: P. aeruginosa GIM 1.551; assay: Pneumonia (lung infection) model; type: in vivo, BALB/c mice; conditions: intranasal 40 μL, 1 μg/μL, once a day for 3 days
Description: A pneumonia model in vivo was established as previously reported, with minor modification (Cortés et al., [2002]; Aoki et al., [2009]; Shi et al., [2018]). A total of 120 mice were randomly divided into two experimental models, one was intranasal inoculation of S. aureus ATCC 25923 (8.3 × 10^9 CFU/mL, 50 μL), and the other was intranasal inoculation of P. aeruginosa GIM 1.551 (4.5 × 10^10 CFU/mL, 50 μL). In the S. aureus ATCC 25923 model, 60 mice were divided into the following six groups of 10 mice each: no infection and treatment was used as a blank control, those with intranasal administration of PBS (40 μL) as the negative control group, those administered with benzylpenicillin potassium (40 μL, 1 μg/μL) as the positive control group, and the remaining three corresponded to Myr-36PW (40 μL, 1 μg/μL), PMAP-36PW (40 μL, 1 μg/μL), and PMAP-36 groups (40 μL, 1 μg/μL). The procedure for P. aeruginosa GIM 1.551 model is the same as for S. aureus ATCC 25923 model, except for the use of ampicillin sodium as the positive control. After 4 h post-inoculation, treatment was initiated, once a day for 3 days. The mice were sacrificed 24 h after the treatment. Changes in the appearance of lung tissues were observed, and lung tissues were removed aseptically from the mice. Half of the removed lung tissues were gently fixed in buffered formaldehyde solution for histopathological assessment by hematoxylin and eosin (H&E) staining. Pathological changes were scored to provide individual therapeutic status as described previously (Lei et al., [2018]). The remaining lung tissues were added with 1 mL of PBS, homogenized, and serially diluted. Bacterial CFU counts were determined.
Figure 8 Therapeutic effect for pneumonia by Myr-36PW in vivo. Mice were injected with S. aureus ATCC 25923 or P. aeruginosa GIM 1.551 to form pneumonia, and lungs (n = 5) in each group were collected on day 4 after intranasal bacterial inoculation. (A) Morphological changes of lung tissues. (B) Representative histopathological images of processed lung section with hematoxylin and eosin (H&E) staining. Images are presented at a magnification of 20×. a: inflammatory cell infiltration. b: the alveolar wall is thickened. c: alveolar wall congestion or alveolar hemorrhage. (C,D) Pathological scores of the lung sections. Scoring standard: 1 indicated no pathology, 2 indicated local pulmonary congestion and inflammatory cell infiltration, 3 indicated pulmonary congestion and a large number of inflammatory cell infiltration, affecting <20% of the section, 4 indicated pulmonary congestion and a large number of inflammatory cell infiltration, affecting 20–50% of the section, and 5 indicated pulmonary congestion and a large number of inflammatory cell infiltration, affecting >50% of the section. (E,F) Bacterial CFU in lung homogenate. BP is benzylpenicillin potassium, AS is ampicillin sodium. Data represent the mean ± SD of five individual experiments.

[6] = test system: P. aeruginosa GIM 1.551; assay: Subcutaneous abscess model; type: in vivo, BALB/c mice; conditions: injected 20 μL, 1 μg/μL, once a day for 3 days
Description: A subcutaneous abscess model in vivo was established as previously reported (Zhao et al., [2019]). The mouse dorsal region with 3.0 cm diameter was treated with hair pusher. A total of 120 mice were randomly divided into two experimental models, one was challenged with S. aureus ATCC 25923 (2.5 × 10^8 CFU/mL, 60 μL), and the other was challenged with P. aeruginosa GIM 1.551 (3.0 × 10^8 CFU/mL, 60 μL). In the S. aureus ATCC 25923 model, 60 mice were divided into six groups of 10 members. The mice with no infection and treatment was used as a blank control, those directly injected with PBS (20 μL) as the negative control group, those injected with benzylpenicillin potassium (20 μL, 1 μg/μL) as the positive control group, and the remaining three groups as the treatment groups injected with Myr-36PW (20 μL, 1 μg/μL), PMAP-36PW (20 μL, 1 μg/μL), and PMAP-36 (20 μL, 1 μg/μL). The procedure in P. aeruginosa GIM 1.551 model is the same as that in S. aureus ATCC 25923 model, except for the use of ampicillin sodium as a positive control. Treatment once a day for 3 days was initiated when the mice developed prominent pustules on their backs. A day after the treatment, the size of the abscess was observed, and its tissues were excised, homogenized, and serially diluted. Bacteria CFU counts were calculated.
Figure 10 Treatment efficacy of subcutaneous abscess by Myr-36PW in vivo. Mice were injected with S. aureus ATCC 25923 or P. aeruginosa GIM 1.551 to develop a subcutaneous abscess before treatment. (A) Changes in the abscess area of mice after 3 days treatment. (B,C) Quantitative analysis of bacterial CFU in abscess area that received 3 days treatment under various experimental conditions. The number of CFU in each treatment group was normalized by using the CFU of the experimental group divided by the CFU of the PBS group (100%). BP is benzylpenicillin potassium, AS is ampicillin sodium. Data represent the mean ± SD of five individual experiments. *P < 0.05 and **P < 0.01, compared with PBS. ^#P < 0.05 and ^##P < 0.01, compared with PMAP-36PW.

[7] = test system: P. aeruginosa GIM 1.551; assay: Wound infection model; type: in vivo, BALB/c mice; conditions: 20 μL, 1 μg/μL, once a day for 7 days
Description: Sixty mice with ten mice in each group were used in the experiment. Infection and treatment were performed as previously described (Hong et al., [2017]). The mouse dorsal region with a diameter of 3.0 cm was treated with hair pusher, and a full-thickness 2.0 cm diameter wound was created by excising the skin and infected by direct seeding with P. aeruginosa GIM 1.551 (1 × 10^8 CFU/mL, 50 μL). The wound was then covered with sterile gauze to prevent cross contamination. Treatment was initiated at 24 h after bacterial inoculation. The mice with no infection and treatment was used as a blank control, those provided with PBS (20 μL) as the negative control group, those administered with ampicillin sodium (20 μL, 1 μg/μL) as the positive control group, and the remaining were those treated with the three peptides (20 μL, 1 μg/μL) once a day for 7 days as the treatment groups. The mice were sacrificed after the 7 day treatment. Changes in the wound were observed, and the infected sections of skin were aseptically contained, homogenized, and serially diluted. Bacterial CFU counts were obtained.
Figure 11 Treatment value of wound by Myr-36PW in vivo. A 2 cm wound was cut with a knife and directly injected with P. aeruginosa GIM 1.551. (A) Wound changes of mice after 7 days treatment. (B) Bacterial CFU in the wound area treated for 7 days under different experimental conditions. AS is ampicillin sodium. Data represent the mean Log (CFU) ± SD of five individual experiments. *P < 0.05 and **P < 0.01, compared with PBS. ^#P < 0.05, compared with PMAP-36PW.

[8] = test system: S. aureus ATCC 25923; type: cell-based, Staphylococcus aureus; conditions: ATCC 25923, 1 h
Description: (§2) The effects of abiotic factors on the antibacterial activity of Myr-36PW were investigated by MIC assay (Xi et al., [2013]; Zhong et al., [2019]). S. aureus ATCC 25923 and P. aeruginosa GIM 1.551 overnight cultures were diluted to 1 × 10^6 CFU/mL, and the MICs of peptides in MHB with different concentration of physiological salts (150 mM NaCL, 2 mM CaCL2) were determined. And after the peptides incubated in 10% mice serum for 1 h at 37°C, MICs of peptides against S. aureus ATCC 25923 and P. aeruginosa GIM 1.551 were determined. The MICs in MHB in the absence of physiological salts and serum were used as the control group.
(§3) Salt and serum stability in vitro were indicated by MIC assay. The concentrations of NaCl and CaCl2 were physiological concentration. 10% mice serum was inactivated by heat treatment for 15 min at 60 ℃。The control group was measured in the absence of physiological salts or serum in MHB.

[9] = test system: P. aeruginosa GIM 1.551; type: cell-based, Pseudomonas aeruginosa; conditions: GIM 1.551, 1 h
Description: as §2, §3

NCC[C@H](O)C(=O)N[C@@H]1C[C@H](N)[C@@H](O[C@H]2O[C@H](CN)[C@@H](O)[C@H](O)[C@H]2O)[C@H](O)[C@H]1O[C@H]1O[C@H](CO)[C@@H](O)[C@H](N)[C@H]1O [Amikacin]
MICs of different classes of antibiotics [1]: 4 µg/mL | MICs of different classes of antibiotics [2]: 128* μg/mL | MICs of different classes of antibiotics [3]: 32 µg/mL | MICs of different classes of antibiotics [4]: >128* μg/mL

CC1(C)S[C@@H]2[C@H](NC(=O)[C@H](N)c3ccccc3)C(=O)N2[C@H]1C(=O)O [Ampicillin sodium]
MICs of different classes of antibiotics [1]: 0.5 µg/mL | MICs of different classes of antibiotics [2]: 64 µg/mL | MICs of different classes of antibiotics [3]: 16 µg/mL | MICs of different classes of antibiotics [4]: 32 µg/mL | Lung histopathology (H&E) [5]: a complete alveolar structure, reduced blood stasis, and large reduction in inflammatory cells | Bacterial CFU in lung homogenate ([5]; n = 5): decreased the P. aeruginosa GIM 1.551 CFU level compared with the PMAP-36PW group (P < 0.05) | Pathological scores of the lung sections ([5]; n = 5): lower scores than PMAP-36PW group (P < 0.05) | Abscess area [6]: significantly reduced the abscess area and effectively suppressed its growth | Bacterial CFU in abscess area ([6]; vs PMAP-36PW: Myr-36PW P < 0.05, ampicillin sodium P < 0.01, n = 5): significant difference compared with that of PBS group (P < 0.01); also recorded: lower than that of PMAP-36PW group | Wound size [7]: significantly reduced | Bacterial CFU in the wound area ([7]; vs PBS group: PMAP-36PW P < 0.05, Myr-36PW and ampicillin sodium P < 0.01, n = 5): significantly reduced

CC[C@H]1OC(=O)[C@H](C)[C@@H](O[C@H]2C[C@@](C)(OC)[C@@H](O)[C@H](C)O2)[C@H](C)[C@@H](O[C@@H]2O[C@H](C)C[C@H](N(C)C)[C@H]2O)[C@](C)(O)C[C@@H](C)CN(C)[C@H](C)[C@@H](O)[C@]1(C)O [Azithromycin]
MICs of different classes of antibiotics [1]: 64* μg/mL | MICs of different classes of antibiotics [2]: 64* μg/mL | MICs of different classes of antibiotics [3]: >128* μg/mL | MICs of different classes of antibiotics [4]: 128* μg/mL

CNC(C)C1CCC(N)C(OC2C(N)CC(N)C(OC3OCC(C)(O)C(NC)C3O)C2O)O1 (centres unmarked) [Gentamicin]
MICs of different classes of antibiotics [1]: 4 µg/mL | MICs of different classes of antibiotics [2]: 32* μg/mL | MICs of different classes of antibiotics [3]: 8 µg/mL | MICs of different classes of antibiotics [4]: 128* μg/mL

Colistin
MICs of different classes of antibiotics [1]: 16* μg/mL | MICs of different classes of antibiotics [2]: 8 µg/mL | MICs of different classes of antibiotics [3]: 2 µg/mL | MICs of different classes of antibiotics [4]: 4* μg/mL

GRFRRLRKKTRKRLKKIGKVLKWIPPIVGSIPLGCG [PMAP-36]
MICs [1]: 0.0156 µg/mL | MICs [2]: 4 µg/mL | MICs [3]: 32 µg/mL | MICs [4]: 1 µg/mL | MICs, CaCl2 [8]: 0.0625 µg/mL | MICs, NaCl [8]: 0.0625 µg/mL | MICs, Serum [8]: 0.0625 µg/mL | MICs, CaCl2 [9]: 2 µg/mL | MICs, Control [9]: 2 µg/mL | MICs, NaCl [9]: 2 µg/mL | MICs, Serum [9]: 2 µg/mL

GRFRRLRKKTRKRLKKIGKVLKWIWWIVGSIPLGCG [PMAP-36PW]
MICs [1]: 0.0078 µg/mL | MICs [2]: 2 µg/mL | MICs [3]: 16 µg/mL | MICs [4]: 0.5 µg/mL | MICs, CaCl2 [9]: 1 µg/mL | MICs, Control [9]: 1 µg/mL | MICs, NaCl [9]: 1 µg/mL | MICs, Serum [9]: 1 µg/mL

Polymyxin B
MICs of different classes of antibiotics [1]: 16* μg/mL | MICs of different classes of antibiotics [2]: 8 µg/mL | MICs of different classes of antibiotics [3]: 2 µg/mL | MICs of different classes of antibiotics [4]: 4* μg/mL
